This passage reports EC50 results from ChEMBL document CHEMBL5726613, “5-(N-fused tricyclic aryl tetrahydroisoquinolin-6-yl) pyridin-3-yl acetic acid derivatives as inhibitors of human immunodeficiency virus replication” (2019).

pEC50: −log10 of the molar value.

A short description of this test: Inhibition of HIV Replication: A recombinant NL-RLuc proviral clone was constructed in which a section of the nef gene from NL4-3 was replaced with the Renilla Luciferase gene. This virus is fully infectious and can undergo multiple cycles of replication in cell culture. In addition, the luciferous reporter provides a simple and easy method for quantitating the extent of virus growth and consequently, the antiviral activity of test compounds. The plasmid pNLRLuc contains the proviral NL-Rluc DNA cloned into pUC18 at the PvuII site. The NL-RLuc virus was prepared by transfection of 293T cells with the plasmid pNLRLuc. Transfections were performed using the LipofectAMINE PLUS kit from Invitrogen (Carlsbad, Calif.) according to the manufacturer and the virus generated was titered in MT-2 cells. For susceptibility analyses, the titrated virus was used to infect MT-2 cells in the presence of compound, and after 5 days of incubation, cells were processed and quantitated for virus growth by the amount of expressed luciferase. Assay media was RPMI 1640 supplemented with 10% heat inactivated fetal bovine serum (FBS), 100 units/ml penicillin G/100 units/ml streptomycin, 10 mM HEPES buffer pH 7.55 and 2 mM L-glutamine. The results from at least 2 experiments were used to calculate the EC50 values. Luciferase was quantitated using the Dual Luciferase kit from Promega (Madison, Wis.). Susceptibility of viruses to compounds was determined by incubation in the presence of serial dilutions of the compound. The 50% effective concentration (EC50) was calculated by using the exponential form of the median effect equation where (Fa)=1/[1+(ED50/drug conc.)m] (Johnson Va., Byington R T. Infectivity Assay. In Techniques in HIV Research. ed. Aldovini A, Walker B D. 71-76. New York: Stockton Press. 1990). Format: cell-based. The note with it: HEK-293T.
As to `Cc1nc(C)c([C@H](OC(C)(C)C)C(=O)O)c(N2CCC(C)(C)CC2)c1-c1ccc2c(c1)CCN(c1ncnc3c1oc1ccccc13)C2`, the pEC50 was 9.00.
With `Cc1ccc2c(c1)[nH]c1nc(N3CCc4cc(-c5c(C)nc(C)c([C@H](OC(C)(C)C)C(=O)O)c5N5CCC(C)(C)CC5)ccc4C3)nc(Cl)c12`, the pEC50 was 8.30.
Next, `Cc1nc(C)c([C@H](OC(C)(C)C)C(=O)O)c(N2CCC(C)(C)CC2)c1-c1ccc2c(c1)CCN(c1ncnc3c1sc1ccccc13)C2`: 8.40; `Cc1nc(C)c([C@H](OC(C)(C)C)C(=O)O)c(N2CCC(C)(C)CC2)c1-c1ccc2c(c1)CCN(c1ncnc3[nH]c4ccccc4c13)C2`: 8.30; `Cc1nc(C)c([C@H](OC(C)(C)C)C(=O)O)c(N2CCC(C)(C)CC2)c1-c1ccc2c(c1)CCN(c1ncnc3c1oc1ccc(F)cc13)C2`: 8.70.
Turning to `Cc1nc(C)c([C@H](OC(C)(C)C)C(=O)O)c(N2CCC(C)(C)CC2)c1-c1ccc2c(c1)CCN(c1ncnc3c1oc1cccc(F)c13)C2`, the pEC50 was 8.52.
Then `CCn1c2ccc(C)cc2c2ncnc(N3CCc4cc(-c5c(C)nc(C)c([C@H](OC(C)(C)C)C(=O)O)c5N5CCC(C)(C)CC5)ccc4C3)c21`, with 7.35; and `Cc1nc(C)c([C@H](OC(C)(C)C)C(=O)O)c(N2CCC(C)(C)CC2)c1-c1ccc2c(c1)CCN(c1ncnc3sc4ccccc4c13)C2`, with 8.30.
For the compound `Cc1nc(C)c([C@H](OC(C)(C)C)C(=O)O)c(N2CCC(C)(C)CC2)c1-c1ccc2c(c1)CCN(c1ncnc3c1[nH]c1ccccc13)C2`, the pEC50 is 7.62.
Next, `Cc1nc(C)c([C@H](OC(C)(C)C)C(=O)O)c(N2CCC(C)(C)CC2)c1-c1ccc2c(c1)CCN(c1ncnc3c1oc1ncccc13)C2`: 9.00.
Then `Cc1nc(C)c([C@H](OC(C)(C)C)C(=O)O)c(N2CCC(C)(C)CC2)c1-c1ccc2c(c1)CCN(c1ccc3ccc4cccnc4c3n1)C2`, with 8.52; and `CCOc1cccc2oc3c(N4CCc5cc(-c6c(C)nc(C)c([C@H](OC(C)(C)C)C(=O)O)c6N6CCC(C)(C)CC6)ccc5C4)ncnc3c12`, with 9.00; and `Cc1ccc2[nH]c3c(N4CCc5cc(-c6c(C)nc(C)c([C@H](OC(C)(C)C)C(=O)O)c6N6CCC(C)(C)CC6)ccc5C4)ncnc3c2c1`, with 7.89.
Next, `Cc1nc(C)c([C@H](OC(C)(C)C)C(=O)O)c(N2CCC(C)(C)CC2)c1-c1ccc2c(c1)CCN(c1nc3ccccc3c3ccccc13)C2`: 7.51.

One may read the pEC50 as −log10 of the EC50, conventionally taken in molar units.
